System: PC3 cells xenografted together with PSC27 cells
Test: PC3/PSC27 xenograft, tumor end volume after chemotherapy and/or PDK4-IN
Assay type: in vivo, SCID mice
Protocol: All experimental mouse experiments were carried out in strict accordance with the relevant regulations of the Institutional Animal Care and Use Committee (IACUC), Shanghai Institutes for Biological Sciences, Chinese Academy of Sciences. Immuno-deficient mice ICR SCID mice (body weight about 25 g) aged about 6 weeks were used for animal experiments related to the present disclosure. Stromal cells PSC27 and epithelial cells were mixed at a ratio of 1:4, and each graft contained 1.25×10^6 cells for tissue remodeling. The xenograft tumors were implanted into mice by subcutaneous transplantation, and the animals were euthanized 8 weeks after the end of the transplantation surgery. […] For pre-clinical chemotherapeutic studies, mice received subcutaneous implantation were given standard laboratory diets. […] The time points were on the first day of the third, fifth and seventh weeks, with a total of 3 cycles of treatment, and each cycle lasted for 2 weeks. After the course of treatment, mouse […] were collected for tumor measurement and histological analysis. […] The chemotherapy experiment ended at the end of the 8th week, and the mice were dissected immediately after sacrifice, and the xenograft tumors were collected and used for pathological system analysis. To closely mimic clinical conditions involving chemotherapeutic drugs, the inventors designed a preclinical regimen incorporating a genotoxic drug (MIT) and/or the PDK4 inhibitor (PDK4-IN) (FIG. 63).

[1] = PDK4-IN 10.0 mg/kg combined with MIT 0.2 mg/kg i.p., end of 8-week regimen

Structure (SMILES): O=C1c2ccccc2C(=O)c2c1cccc2-c1cnn(C2CCNCC2)c1 [PDK4-IN]
- further decline of tumor volume over MIT alone [1]: 35.5%
- total tumor shrinkage compared to the control group [1]: 72.6%
- effect on tumor volume as single agent (PDK4-IN alone, 10.0 mg/kg i.p.): did not provide noticeable benefits

From patent publication US20260137671A1, “PDK4 as a Cell-Aging Intervention Target and Its Use in Chemotherapy and Anticancer” (Shanghai Institute of Nutrition and Health, Chinese Academy …, priority 2022, published 2026)
